From patent US11214594B2, “Antimicrobial peptide having synergistic antibacterial effect with antibiotics on multidrug resistant bacteria, and use thereof” (priority 2016, dated 2022)
≈ marks a conversion by molar mass, not a printed value. Where a SMILES comes first, the peptide text is derived from it. [ ]: non-standard residue; d: D form.

Key:
MDRST 8009 = type: cell-based, Salmonella typhimurium; conditions: agent alone
In short: (§1)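 Peptides were serially diluted twofold in Mueller-Hinton medium and combined 1:1 with bacterial suspensions prepared at 2×10^6 CFU. Readout was the minimal inhibitory concentration, i.e. the lowest concentration with no growth.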

A. baumannii = test: MIC of antibiotic during combined treatment with antimicrobial peptide; type: cell-based, Acinetobacter baumannii; conditions: for Antibiotic MIC, Erythromycin / Antibiotic MIC, Linezolid / Antibiotic MIC, Vancomycin: A. baumannii
In short: (§2)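 First, antibiotic solution is diluted with MH medium; next, the dilution is dispensed into wells containing peptide; finally, the orientation is swapped and MIC of each mixture determined.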

E. coli [1] = test: microbe, parasite or virus in culture; type: cell-based, Escherichia coli; conditions: 16 h
In short: as §1

MDREC 1229 = test: microbe, parasite or virus in culture; type: cell-based, Escherichia coli
In short: as §1

E. coli [2] = test: MIC of antibiotic during combined treatment with antimicrobial peptide; type: cell-based, Escherichia coli; conditions: for Synergistic effect of antibacterial activity with existing antibiotics compared with PapMA-1: E. coli and MDREC1229; for Antibiotic MIC, Erythromycin / Antibiotic MIC, Linezolid / Antibiotic MIC, Vancomycin: E. coli
In short: as §2

[3] = test system: multi-drug resistant bacteria; test: MIC, summary statements for multi-drug resistant bacteria; type: cell-based
In short: as §1

[4] = combined with peptide at 1 μg/ml
[5] = combined with peptide at 2 μg/ml
[6] = combined with peptide at 4 μg/ml
[7] = combined with peptide at 6 μg/ml
[8] = combined with peptide at 8 μg/ml
[9] = combined with peptide at 16 μg/ml
[10] = combined with peptide at 32 μg/ml
[11] = combined with peptide at 64 μg/ml
[12] = erythromycin combined with peptide at 1 μg/ml
[13] = erythromycin combined with peptide at 2 μg/ml
[14] = erythromycin combined with peptide at 4 μg/ml
[15] = erythromycin combined with peptide at 6 μg/ml
[16] = erythromycin combined with peptide at 8 μg/ml
[17] = erythromycin combined with peptide at 16 μg/ml
[18] = erythromycin combined with peptide at 32 μg/ml
[19] = erythromycin combined with peptide at 64 μg/ml
[20] = linezolid combined with peptide at 1 μg/ml
[21] = linezolid combined with peptide at 2 μg/ml
[22] = linezolid combined with peptide at 4 μg/ml
[23] = linezolid combined with peptide at 6 μg/ml
[24] = linezolid combined with peptide at 8 μg/ml
[25] = linezolid combined with peptide at 16 μg/ml
[26] = linezolid combined with peptide at 32 μg/ml
[27] = linezolid combined with peptide at 64 μg/ml
[28] = vancomycin combined with peptide at 1 μg/ml
[29] = vancomycin combined with peptide at 2 μg/ml
[30] = vancomycin combined with peptide at 4 μg/ml
[31] = vancomycin combined with peptide at 6 μg/ml
[32] = vancomycin combined with peptide at 8 μg/ml
[33] = vancomycin combined with peptide at 16 μg/ml
[34] = vancomycin combined with peptide at 32 μg/ml
[35] = vancomycin combined with peptide at 64 μg/ml

CC[C@H](C)[C@H](NC(=O)[C@H](CCCCN)NC(=O)[C@H](Cc1c[nH]c2ccccc12)NC(=O)[C@@H](N)CCCNC(=N)N)C(=O)N[C@@H](Cc1ccccc1)C(=O)N[C@@H](CCCCN)C(=O)N[C@@H](CCCCN)C(=O)N[C@H](C(=O)N[C@H](CCCCN)C(=O)N[C@@H](CCCCN)C(=O)N[C@@H](CC(C)C)C(=O)N[C@@H](CC(C)C)C(=O)N[C@@H](Cc1c[nH]cn1)C(=O)N[C@@H](CO)C(=O)N[C@@H](Cc1ccccc1)C(=O)N[C@@H](CCCCN)C(=O)N[C@@H](CCCCN)C(=O)N[C@@H](Cc1ccccc1)C(N)=O)[C@@H](C)CC [PapMA-15, RWK IFK KIk KLL HSF KKF-NH2] (H-RWKIFKKI[dK]KLLHSFKKF-NH2; N-terminus assumed)
Minimal inhibitory concentration MIC (MDRST 8009): 64 µg/mL (≈ 26.9 µM)
Antibiotic MIC, Erythromycin (A. baumannii; [4]): 32 µg/mL
Antibiotic MIC, Linezolid (A. baumannii; [4]): >128 µg/mL
Antibiotic MIC, Vancomycin (A. baumannii; [4]): >128 µg/mL
Antibiotic MIC, Erythromycin (A. baumannii; [5]): 32 µg/mL
Antibiotic MIC, Linezolid (A. baumannii; [5]): 128 µg/mL
Antibiotic MIC, Vancomycin (A. baumannii; [5]): 128 µg/mL
Antibiotic MIC, Erythromycin (A. baumannii; [6]): 16 µg/mL
Antibiotic MIC, Linezolid (A. baumannii; [6]): 64 µg/mL
Antibiotic MIC, Vancomycin (A. baumannii; [6]): 32 µg/mL
Antibiotic MIC, Erythromycin (A. baumannii; [7]): 2 µg/mL
Antibiotic MIC, Linezolid (A. baumannii; [7]): 32 µg/mL
Antibiotic MIC, Vancomycin (A. baumannii; [7]): 16 µg/mL
Antibiotic MIC, Erythromycin (A. baumannii; [8]): 0.5 µg/mL
Antibiotic MIC, Linezolid (A. baumannii; [8]): 16 µg/mL
Antibiotic MIC, Vancomycin (A. baumannii; [8]): 16 µg/mL
Antibiotic MIC, Erythromycin (A. baumannii; [9]): 0.25 µg/mL
Antibiotic MIC, Linezolid (A. baumannii; [9]): 2 µg/mL
Antibiotic MIC, Vancomycin (A. baumannii; [9]): 8 µg/mL
Antibiotic MIC, Erythromycin (A. baumannii; [10]): 0 µg/mL
Antibiotic MIC, Linezolid (A. baumannii; [10]): 0 µg/mL
Antibiotic MIC, Vancomycin (A. baumannii; [10]): 0 µg/mL
Antibiotic MIC, Erythromycin (A. baumannii; [11]): 0 µg/mL
Antibiotic MIC, Linezolid (A. baumannii; [11]): 0 µg/mL
Antibiotic MIC, Vancomycin (A. baumannii; [11]): 0 µg/mL
Minimal inhibitory concentration MIC (E. coli [1]): 32 µg/mL (≈ 13.5 µM)
Minimal inhibitory concentration MIC (MDREC 1229): 32 µg/mL (≈ 13.5 µM)
Peptide MIC, peptide alone (MDREC 1229): 32 µg/mL
Synergistic effect of antibacterial activity with existing antibiotics compared with PapMA-1 (E. coli [2]): level similar to that of the PapMA-1 peptide
Antibiotic MIC, Erythromycin (E. coli [2]; [12]): 64 µg/mL
Antibiotic MIC, Erythromycin (E. coli [2]; [13]): 32 µg/mL
Antibiotic MIC, Erythromycin (E. coli [2]; [14]): 16 µg/mL
Antibiotic MIC, Erythromycin (E. coli [2]; [15]): 2 µg/mL
Antibiotic MIC, Erythromycin (E. coli [2]; [16]): 1 µg/mL
Antibiotic MIC, Erythromycin (E. coli [2]; [17]): 0.25 µg/mL
Antibiotic MIC, Erythromycin (E. coli [2]; [18]): 0 µg/mL
Antibiotic MIC, Erythromycin (E. coli [2]; [19]): 0 µg/mL
Antibiotic MIC, Linezolid (E. coli [2]; [20]): >128 µg/mL
Antibiotic MIC, Linezolid (E. coli [2]; [21]): 128 µg/mL
Antibiotic MIC, Linezolid (E. coli [2]; [22]): 32 µg/mL
Antibiotic MIC, Linezolid (E. coli [2]; [23]): 16 µg/mL
Antibiotic MIC, Linezolid (E. coli [2]; [24]): 16 µg/mL
Antibiotic MIC, Linezolid (E. coli [2]; [25]): 8 µg/mL
Antibiotic MIC, Linezolid (E. coli [2]; [26]): 0 µg/mL
Antibiotic MIC, Linezolid (E. coli [2]; [27]): 0 µg/mL
Antibiotic MIC, Vancomycin (E. coli [2]; [28]): >128 µg/mL
Antibiotic MIC, Vancomycin (E. coli [2]; [29]): >128 µg/mL
Antibiotic MIC, Vancomycin (E. coli [2]; [30]): >128 µg/mL
Antibiotic MIC, Vancomycin (E. coli [2]; [31]): 64 µg/mL
Antibiotic MIC, Vancomycin (E. coli [2]; [32]): 32 µg/mL
Antibiotic MIC, Vancomycin (E. coli [2]; [33]): 16 µg/mL
Antibiotic MIC, Vancomycin (E. coli [2]; [34]): 0 µg/mL
Antibiotic MIC, Vancomycin (E. coli [2]; [35]): 0 µg/mL
Antibacterial activity relative to PapMA-1 [3]: twice to four times higher

CC[C@H](C)[C@H](NC(=O)[C@H](CCCCN)NC(=O)[C@H](Cc1c[nH]c2ccccc12)NC(=O)[C@@H](N)CCCNC(=N)N)C(=O)N[C@@H](Cc1ccccc1)C(=O)N[C@@H](CCCCN)C(=O)N[C@@H](CCCCN)C(=O)N[C@H](C(=O)N[C@H](CCCCN)C(=O)N[C@@H](CCCCN)C(=O)N[C@@H](CC(C)C)C(=O)N[C@@H](CC(C)C)C(=O)N[C@@H](Cc1c[nH]cn1)C(=O)N[C@@H](CCC(=O)O)C(=O)N[C@@H](Cc1ccccc1)C(=O)N[C@@H](CCCCN)C(=O)N[C@@H](CCCCN)C(=O)N[C@@H](Cc1ccccc1)C(N)=O)[C@@H](C)CC [PapMA-19, RWK IFK KIk KLL HEF KKF-NH2] (H-RWKIFKKI[dK]KLLHEFKKF-NH2; N-terminus assumed)
Minimal inhibitory concentration MIC (MDRST 8009): 64 µg/mL (≈ 26.5 µM)
Synergistic effect of antibacterial activity with existing antibiotics compared with PapMA-1 (A. baumannii; A. baumannii and MDRAB 12035): higher level than the PapMA-1 peptide
Antibiotic MIC, Erythromycin (A. baumannii; [4]): 32 µg/mL
Antibiotic MIC, Linezolid (A. baumannii; [4]): >128 µg/mL
Antibiotic MIC, Vancomycin (A. baumannii; [4]): >128 µg/mL
Antibiotic MIC, Erythromycin (A. baumannii; [5]): 16 µg/mL
Antibiotic MIC, Linezolid (A. baumannii; [5]): 64 µg/mL
Antibiotic MIC, Vancomycin (A. baumannii; [5]): 128 µg/mL
Antibiotic MIC, Erythromycin (A. baumannii; [6]): 4 µg/mL
Antibiotic MIC, Linezolid (A. baumannii; [6]): 16 µg/mL
Antibiotic MIC, Vancomycin (A. baumannii; [6]): 32 µg/mL
Antibiotic MIC, Erythromycin (A. baumannii; [7]): 2 µg/mL
Antibiotic MIC, Linezolid (A. baumannii; [7]): 8 µg/mL
Antibiotic MIC, Vancomycin (A. baumannii; [7]): 8 µg/mL
Antibiotic MIC, Erythromycin (A. baumannii; [8]): 0.25 µg/mL
Antibiotic MIC, Linezolid (A. baumannii; [8]): 4 µg/mL
Antibiotic MIC, Vancomycin (A. baumannii; [8]): 4 µg/mL
Antibiotic MIC, Erythromycin (A. baumannii; [9]): 0 µg/mL
Antibiotic MIC, Linezolid (A. baumannii; [9]): 0 µg/mL
Antibiotic MIC, Vancomycin (A. baumannii; [9]): 0 µg/mL
Antibiotic MIC, Erythromycin (A. baumannii; [10]): 0 µg/mL
Antibiotic MIC, Linezolid (A. baumannii; [10]): 0 µg/mL
Antibiotic MIC, Vancomycin (A. baumannii; [10]): 0 µg/mL
Antibiotic MIC, Erythromycin (A. baumannii; [11]): 0 µg/mL
Antibiotic MIC, Linezolid (A. baumannii; [11]): 0 µg/mL
Antibiotic MIC, Vancomycin (A. baumannii; [11]): 0 µg/mL
Minimal inhibitory concentration MIC (E. coli [1]): 32 µg/mL (≈ 13.2 µM)
Minimal inhibitory concentration MIC (MDREC 1229): 32 µg/mL (≈ 13.2 µM)
Peptide MIC, peptide alone (MDREC 1229): 32 µg/mL
Synergistic effect of antibacterial activity with existing antibiotics compared with PapMA-1 (E. coli [2]): higher level than the PapMA-1 peptide
Antibiotic MIC, Erythromycin (E. coli [2]; [12]): 64 µg/mL
Antibiotic MIC, Erythromycin (E. coli [2]; [13]): 32 µg/mL
Antibiotic MIC, Erythromycin (E. coli [2]; [14]): 8 µg/mL
Antibiotic MIC, Erythromycin (E. coli [2]; [15]): 2 µg/mL
Antibiotic MIC, Erythromycin (E. coli [2]; [16]): 1 µg/mL
Antibiotic MIC, Erythromycin (E. coli [2]; [17]): 0.25 µg/mL
Antibiotic MIC, Erythromycin (E. coli [2]; [18]): 0 µg/mL
Antibiotic MIC, Erythromycin (E. coli [2]; [19]): 0 µg/mL
Antibiotic MIC, Linezolid (E. coli [2]; [20]): >128 µg/mL
Antibiotic MIC, Linezolid (E. coli [2]; [21]): 64 µg/mL
Antibiotic MIC, Linezolid (E. coli [2]; [22]): 32 µg/mL
Antibiotic MIC, Linezolid (E. coli [2]; [23]): 8 µg/mL
Antibiotic MIC, Linezolid (E. coli [2]; [24]): 8 µg/mL
Antibiotic MIC, Linezolid (E. coli [2]; [25]): 4 µg/mL
Antibiotic MIC, Linezolid (E. coli [2]; [26]): 0 µg/mL
Antibiotic MIC, Linezolid (E. coli [2]; [27]): 0 µg/mL
Antibiotic MIC, Vancomycin (E. coli [2]; [28]): >128 µg/mL
Antibiotic MIC, Vancomycin (E. coli [2]; [29]): 128 µg/mL
Antibiotic MIC, Vancomycin (E. coli [2]; [30]): 64 µg/mL
Antibiotic MIC, Vancomycin (E. coli [2]; [31]): 8 µg/mL
Antibiotic MIC, Vancomycin (E. coli [2]; [32]): 8 µg/mL
Antibiotic MIC, Vancomycin (E. coli [2]; [33]): 4 µg/mL
Antibiotic MIC, Vancomycin (E. coli [2]; [34]): 0 µg/mL
Antibiotic MIC, Vancomycin (E. coli [2]; [35]): 0 µg/mL
Antibacterial activity relative to PapMA-1 [3]: twice to four times higher
